Source: patent US10131652B2, “Pyrimidinyloxy benzene derivatives as herbicides” (E. I. DU PONT DE NEMOURS AND COMPANY, priority 2014, dated 2018)

Legend:
Type in all cases: in vivo
[1] = system: Italian ryegrass (Lolium multiflorum); assay: Test B pre-/postemergence plant response
Outline: (§1)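 Visual injury rating, 0 (no effect) to 100 (complete control), vs untreated controls after ~10 d greenhouse. Pre: directed soil spray after planting in loam/sand. Post: plants 2–10 cm, 1–2 leaf stage. Compound in non-phytotoxic solvent plus surfactant.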

[2] = system: barnyardgrass (Echinochloa crus-galli); assay: Test B pre-/postemergence plant response
Outline: as §1

corn (Zea mays) = assay: Test B pre-/postemergence plant response
Outline: as §1

[3] = system: giant foxtail (Setaria faberii); assay: Test B pre-/postemergence plant response
Outline: as §1

kochia (Kochia scoparia) [4] = assay: Test B pre-/postemergence plant response
Outline: as §1

[5] = system: pigweed (Amaranthus retroflexus); assay: Test B pre-/postemergence plant response
Outline: as §1

[6] = system: ragweed (common ragweed, Ambrosia elatior); assay: Test B pre-/postemergence plant response
Outline: as §1

[7] = system: wheat (Triticum aestivum); assay: Test B pre-/postemergence plant response
Outline: as §1

[8] = system: blackgrass (Alopecurus myosuroides); assay: Test B postemergence plant response
Outline: (§2)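 Plants grown in pots of loam soil–sand blend were sprayed postemergence with formulated test chemicals at 2 to 10 cm height, one- to two-leaf stage. After about 10 days in a greenhouse, injury was visually rated against untreated controls on a 0 to 100 scale (0 no effect, 100 complete control).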

[9] = system: galium (catchweed bedstraw, Galium aparine); assay: Test B postemergence plant response
Outline: as §2

[10] = system: barnyardgrass (Echinochloa crus-galli); assay: Test C flooded paddy test plant response; details: Flood, 250 g ai/ha; scale of 0 to 100 where 0 is no effect and 100 is complete control; 13 to 15 days
Outline: (§3)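 Greenhouse paddy assay, 13–15 days. Treatment into 3 cm floodwater over 2-leaf plants; visual 0–100 rating against controls.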

[11] = system: ducksalad (Heteranthera limosa); assay: Test C flooded paddy test plant response; details: Flood, 250 g ai/ha; scale of 0 to 100 where 0 is no effect and 100 is complete control; 13 to 15 days
Outline: as §3

rice (Oryza sativa) = assay: Test C flooded paddy test plant response; details: Flood, 250 g ai/ha; scale of 0 to 100 where 0 is no effect and 100 is complete control; 13 to 15 days
Outline: as §3

[12] = system: small-flower umbrella sedge (Cyperus difformis); assay: Test C flooded paddy test plant response; details: Flood, 250 g ai/ha; scale of 0 to 100 where 0 is no effect and 100 is complete control; 13 to 15 days
Outline: as §3

[13] = system: chickweed (common chickweed, Stellaria media); assay: Test D postemergence plant response; details: for Plant response rating (scale 0 to 100), Chickweed: 16 g ai/ha
Outline: (§4)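 Plants grown in pots of peat moss–vermiculite medium with wetting agent and starter nutrients received postemergence applications of the formulated test chemicals at 2 to 18 cm height (1- to 4-leaf stage). After 13 to 15 days in a greenhouse, injury was scored visually against untreated controls, 0 (no effect) to 100 (complete control).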

kochia (Kochia scoparia) [14] = assay: Test D postemergence plant response; details: for Plant response rating (scale 0 to 100), Kochia: 16 g ai/ha
Outline: as §4

wild oat (Avena fatua) = assay: Test D postemergence plant response; details: for Plant response rating (scale 0 to 100), Oat, Wild: 16 g ai/ha; for Plant response rating, Oat, Wild: 125 g ai/ha
Outline: as §4

[15] = 31 g ai/ha, Preemergence, 0 to 100 scale where 0 is no effect and 100 is complete control
[16] = 125 g ai/ha, postemergence, 0 to 100 scale, 0 no effect, 100 complete control
[17] = Postemergence, 31 g ai/ha, 0 to 100 scale (0 no effect, 100 complete control)
[18] = Preemergence, 125 g ai/ha, 0 to 100 scale (0 no effect, 100 complete control)
[19] = 31 g ai/ha, scale 0 to 100 (0 no effect, 100 complete control)
[20] = 62 g ai/ha, scale 0 to 100, 0 no effect, 100 complete control
[21] = 125 g ai/ha, scale 0 to 100, 0 no effect, 100 complete control
[22] = scale 0 to 100, 0 no effect, 100 complete control

FCc1cc(-c2ccccc2Oc2ncc(Cl)cn2)on1 [Compound 224]
35: Plant response rating (scale 0 to 100), Kochia (kochia (Kochia scoparia) [14])
70: Plant response rating, Kochia (kochia (Kochia scoparia) [4]; [17]) | Plant response rating, Pigweed [5, 17] | Plant response rating, Blackgrass [8, 16] | Ducksalad plant response rating [11] | Kochia plant response rating (kochia (Kochia scoparia) [14]; [19])
90: Foxtail, Giant plant response rating [3, 18] | Kochia plant response rating (kochia (Kochia scoparia) [4]; [18]) | Plant response rating, Pigweed [5, 15]
10: Plant response rating, Barnyardgrass [2, 15] | Plant response rating (scale 0 to 100), Chickweed [13]
100: Plant response rating, Kochia (kochia (Kochia scoparia) [4]; [16]) | Plant response rating, Pigweed [5, 16] | Pigweed plant response rating [5, 18] | Plant response rating, Ragweed [6, 16] | Plant response rating, Galium [9, 16] | Plant response rating, Kochia (kochia (Kochia scoparia) [14]; [21])
15: Chickweed plant response rating [13, 19]
80: Plant response rating, Galium [9, 17] | Plant response rating, Chickweed [13, 21]
30: Plant response rating, Barnyardgrass [2, 17]
60: Plant response rating, Kochia (kochia (Kochia scoparia) [4]; [15])
50: Plant response rating, Barnyardgrass [2, 16] | Barnyardgrass plant response rating [2, 18] | Plant response rating, Foxtail, Giant [3, 16] | Plant response rating, Ragweed [6, 17]
65: Sedge, Umbrella plant response rating [12]
40: Plant response rating, Foxtail, Giant [3, 15] | Plant response rating, Blackgrass [8, 17] | Plant response rating, Chickweed [13, 20]
95: Plant response rating, Kochia (kochia (Kochia scoparia) [14]; [20])
20: Plant response rating, Corn (corn (Zea mays); [16]) | Plant response rating, Foxtail, Giant [3, 17]
0: Plant response rating, Ryegrass, Italian [1, 15] | Plant response rating, Ryegrass, Italian [1, 16] | Plant response rating, Ryegrass, Italian [1, 17] | Ryegrass, Italian plant response rating [1, 18] | Plant response rating, Corn (corn (Zea mays); [17]) | Plant response rating, Wheat [7, 16] | Plant response rating, Wheat [7, 17] | Barnyardgrass plant response rating [10] | Rice plant response rating (rice (Oryza sativa)) | Plant response rating (scale 0 to 100), Oat, Wild (wild oat (Avena fatua)) | Oat, Wild plant response rating (wild oat (Avena fatua); [19]) | Oat, Wild plant response rating (wild oat (Avena fatua); [20]) | Plant response rating, Oat, Wild (wild oat (Avena fatua); [22])

Fc1cccc(Oc2ncc(Cl)cn2)c1-c1cc(C(F)(F)F)no1 [Compound 228]
60: Plant response rating, Blackgrass [8, 17]
90: Plant response rating, Ryegrass, Italian [1, 16] | Plant response rating, Foxtail, Giant [3, 15] | Plant response rating, Foxtail, Giant [3, 16] | Sedge, Umbrella plant response rating [12]
20: Plant response rating, Ryegrass, Italian [1, 17] | Plant response rating, Corn (corn (Zea mays); [17]) | Oat, Wild plant response rating (wild oat (Avena fatua); [19])
10: Plant response rating (scale 0 to 100), Oat, Wild (wild oat (Avena fatua))
50: Plant response rating, Barnyardgrass [2, 15] | Plant response rating, Wheat [7, 16]
30: Plant response rating, Ryegrass, Italian [1, 15] | Plant response rating, Barnyardgrass [2, 17] | Plant response rating, Corn (corn (Zea mays); [16]) | Plant response rating, Ragweed [6, 17] | Ragweed plant response rating [6, 18]
85: Ducksalad plant response rating [11] | Plant response rating (scale 0 to 100), Chickweed [13] | Chickweed plant response rating [13, 19]
100: Barnyardgrass plant response rating [2, 18] | Foxtail, Giant plant response rating [3, 18] | Plant response rating, Kochia (kochia (Kochia scoparia) [4]; [16]) | Plant response rating, Kochia (kochia (Kochia scoparia) [4]; [17]) | Kochia plant response rating (kochia (Kochia scoparia) [4]; [18]) | Plant response rating, Pigweed [5, 15] | Plant response rating, Pigweed [5, 16] | Plant response rating, Pigweed [5, 17] | Pigweed plant response rating [5, 18] | Plant response rating, Blackgrass [8, 16] | Plant response rating, Galium [9, 16] | Plant response rating, Galium [9, 17] | Plant response rating, Chickweed [13, 21] | Plant response rating (scale 0 to 100), Kochia (kochia (Kochia scoparia) [14]) | Kochia plant response rating (kochia (Kochia scoparia) [14]; [19]) | Plant response rating, Kochia (kochia (Kochia scoparia) [14]; [20]) | Plant response rating, Kochia (kochia (Kochia scoparia) [14]; [21])
40: Plant response rating, Foxtail, Giant [3, 17] | Plant response rating, Ragweed [6, 16] | Barnyardgrass plant response rating [10] | Oat, Wild plant response rating (wild oat (Avena fatua); [20])
55: Plant response rating, Oat, Wild (wild oat (Avena fatua); [22])
98: Plant response rating, Chickweed [13, 20]
70: Ryegrass, Italian plant response rating [1, 18] | Plant response rating, Barnyardgrass [2, 16] | Plant response rating, Kochia (kochia (Kochia scoparia) [4]; [15])
0: Plant response rating, Ragweed [6, 15] | Plant response rating, Wheat [7, 17] | Rice plant response rating (rice (Oryza sativa))

Cc1cc(-c2c(F)cccc2Oc2ncc(Cl)cn2)on1 [Compound 229]
90: Barnyardgrass plant response rating [2, 18] | Plant response rating, Foxtail, Giant [3, 15] | Foxtail, Giant plant response rating [3, 18] | Plant response rating, Kochia (kochia (Kochia scoparia) [4]; [17]) | Ragweed plant response rating [6, 18] | Ducksalad plant response rating [11] | Sedge, Umbrella plant response rating [12] | Kochia plant response rating (kochia (Kochia scoparia) [14]; [19])
40: Plant response rating, Wheat [7, 16]
30: Ryegrass, Italian plant response rating [1, 18] | Plant response rating, Corn (corn (Zea mays); [16]) | Plant response rating, Blackgrass [8, 17]
85: Plant response rating, Chickweed [13, 21] | Plant response rating (scale 0 to 100), Kochia (kochia (Kochia scoparia) [14])
10: Oat, Wild plant response rating (wild oat (Avena fatua); [19]) | Oat, Wild plant response rating (wild oat (Avena fatua); [20]) | Plant response rating, Oat, Wild (wild oat (Avena fatua); [22])
50: Plant response rating, Barnyardgrass [2, 15] | Plant response rating, Foxtail, Giant [3, 17]
70: Plant response rating, Barnyardgrass [2, 16] | Plant response rating, Pigweed [5, 17] | Plant response rating, Ragweed [6, 15]
60: Plant response rating (scale 0 to 100), Chickweed [13] | Chickweed plant response rating [13, 19]
100: Plant response rating, Kochia (kochia (Kochia scoparia) [4]; [16]) | Kochia plant response rating (kochia (Kochia scoparia) [4]; [18]) | Plant response rating, Pigweed [5, 15] | Plant response rating, Pigweed [5, 16] | Pigweed plant response rating [5, 18] | Plant response rating, Ragweed [6, 16] | Plant response rating, Ragweed [6, 17] | Plant response rating, Galium [9, 16]
98: Plant response rating, Kochia (kochia (Kochia scoparia) [14]; [20]) | Plant response rating, Kochia (kochia (Kochia scoparia) [14]; [21])
0: Plant response rating, Ryegrass, Italian [1, 15] | Plant response rating, Ryegrass, Italian [1, 17] | Plant response rating, Corn (corn (Zea mays); [17]) | Plant response rating, Wheat [7, 17] | Plant response rating (scale 0 to 100), Oat, Wild (wild oat (Avena fatua))
80: Plant response rating, Foxtail, Giant [3, 16] | Plant response rating, Kochia (kochia (Kochia scoparia) [4]; [15]) | Plant response rating, Blackgrass [8, 16] | Plant response rating, Galium [9, 17] | Plant response rating, Chickweed [13, 20]
20: Plant response rating, Ryegrass, Italian [1, 16] | Plant response rating, Barnyardgrass [2, 17]
15: Rice plant response rating (rice (Oryza sativa))
55: Barnyardgrass plant response rating [10]

Cc1cc(-c2c(F)cccc2Oc2ncc(Br)cn2)on1 [Compound 230]
5: Oat, Wild plant response rating (wild oat (Avena fatua); [20])
70: Barnyardgrass plant response rating [2, 18] | Plant response rating, Foxtail, Giant [3, 16] | Plant response rating, Ragweed [6, 17] | Plant response rating, Blackgrass [8, 16]
65: Plant response rating (scale 0 to 100), Chickweed [13] | Chickweed plant response rating [13, 19] | Plant response rating (scale 0 to 100), Kochia (kochia (Kochia scoparia) [14])
0: Plant response rating, Ryegrass, Italian [1, 15] | Plant response rating, Ryegrass, Italian [1, 16] | Plant response rating, Ryegrass, Italian [1, 17] | Ryegrass, Italian plant response rating [1, 18] | Plant response rating, Barnyardgrass [2, 17] | Plant response rating, Corn (corn (Zea mays); [17]) | Plant response rating, Foxtail, Giant [3, 17] | Plant response rating, Wheat [7, 17] | Plant response rating (scale 0 to 100), Oat, Wild (wild oat (Avena fatua)) | Oat, Wild plant response rating (wild oat (Avena fatua); [19])
60: Plant response rating, Barnyardgrass [2, 16] | Plant response rating, Foxtail, Giant [3, 15] | Plant response rating, Kochia (kochia (Kochia scoparia) [4]; [15]) | Plant response rating, Pigweed [5, 17]
80: Plant response rating, Kochia (kochia (Kochia scoparia) [4]; [17]) | Ragweed plant response rating [6, 18] | Plant response rating, Galium [9, 17] | Plant response rating, Chickweed [13, 21]
75: Chickweed plant response rating [13, 20]
100: Plant response rating, Kochia (kochia (Kochia scoparia) [4]; [16]) | Kochia plant response rating (kochia (Kochia scoparia) [4]; [18]) | Pigweed plant response rating [5, 18] | Plant response rating, Ragweed [6, 16] | Plant response rating, Galium [9, 16] | Kochia plant response rating (kochia (Kochia scoparia) [14]; [20]) | Plant response rating, Kochia (kochia (Kochia scoparia) [14]; [21])
10: Plant response rating, Barnyardgrass [2, 15] | Plant response rating, Corn (corn (Zea mays); [16]) | Plant response rating, Wheat [7, 16] | Plant response rating, Oat, Wild (wild oat (Avena fatua); [22])
85: Ducksalad plant response rating [11] | Sedge, Umbrella plant response rating [12] | Kochia plant response rating (kochia (Kochia scoparia) [14]; [19])
90: Foxtail, Giant plant response rating [3, 18] | Plant response rating, Pigweed [5, 15] | Plant response rating, Pigweed [5, 16]
40: Barnyardgrass plant response rating [10]
20: Plant response rating, Ragweed [6, 15] | Plant response rating, Blackgrass [8, 17] | Rice plant response rating (rice (Oryza sativa))
